According to patent publication US20100286058A1, “Assessing Chemotherapy Resistance of Colorectal Tumors by Determining Sparc Hypermethylation” (priority 2007, published 2010):
“And” between values parts separate entries of the source, which are not always exact repeats. Identical values can stand only once. “Also recorded” adds a separate entry of the source.

Tests used:
SPARC [1] = assay: Western blot of SPARC protein; format: cell-based, Human; settings: MIP101 cells (printed MW101) exposed to 5-Aza
SPARC promoter = assay: Methylation specific PCR of CRC cell lines; format: cell-based, Human; settings: 4 μM 5-Aza, 7 days in vitro; all four CRC cell lines (MIP101, RKO, HCT116, HT29)
Method: (§1) Human colorectal cancer (CRC) cell lines, MIP 101, RKO, HCT116 and HT29 (ATCC), and a normal colon cell line CCD 112CON (ATCC), were maintained in DMEM supplemented with 10% fetal bovine serum; 1% Kanamycin, Streptomycin, Penicillin; and incubated at 37° C. and 5% CO2. To determine the effect of reversing the methylation status of SPARC, a demethylating agent (5-Aza-2′deoxycytidine, “5-Aza”) was added to the culture media at a final concentration of 4 μm for a period of 7 days with medium changes on day 4, before assessing its effect on cell viability (WST-1), apoptosis (Caspase 3/7 and TUNEL) and cell proliferation.
This technique is based on bisulfite treatment of the DNA, which modifies cytosines to uracil except when they are methylated (5-methylcytosine), followed by PCR. After bisulfite modification the DNA was amplified using methylation specific primers. Two primer sets, previously described, were used to target the CpG island located in the putative promoter region of the SPARC gene, and are referred as MSP1 and MSP2. Primers targeting INK4A(p16) were used as control. […] For RT-PCR, mRNA isolated from CRC cell lines were extracted using Trizol (Invitrogen). […]

SPARC [2] = assay: RT-PCR of SPARC mRNA; format: cell-based, Human; settings: MIP101 cells exposed to 5-Aza
Text: This technique is based on bisulfite treatment of the DNA, which modifies cytosines to uracil except when they are methylated (5-methylcytosine), followed by PCR. After bisulfite modification the DNA was amplified using methylation specific primers. Two primer sets, previously described, were used to target the CpG island located in the putative promoter region of the SPARC gene, and are referred as MSP1 and MSP2. Primers targeting INK4A(p16) were used as control. […] For RT-PCR, mRNA isolated from CRC cell lines were extracted using Trizol (Invitrogen). Primers to amplify SPARC, sense 5′-GGGAGGGCCTTGGCAG-3′ antisense 5′-GCACATGGGGGTGTTG-3′ and actin, sense 5′-GCCACGGCTGCTTCCAG-3′antisense 5′-GGCGTACAGGTCTTTGC-3′ were annealed at 49° C. in 45 cycles after reverse transcription for 1 hour at 50° C. Amplicons were separated in 2.5% agarose gel electrophoresis.

HCT 116 cells = assay: Cell proliferation (cell counts); format: cell-based, Human; settings: incubated with 5-Aza, most noticeable after 2-days
Method: as §1
(§2) To determine the rate of cell proliferation, cells exposed to 5-Aza for 7 days (and untreated controls) were seeded at 20,000 cells/well into a 48-well plate. Cells were counted from duplicate wells at 24, 48 and 72 h. The effect of 5-FU exposure for 24 hour-period on cell proliferation in the presence or absence of 5-Aza was also determined. We performed two independent experiments.

HT29 cells = assay: Cell proliferation (cell counts); format: cell-based, Human; settings: incubated with 5-Aza, most noticeable after 2-days
Method: as §1, §2

MIP101 cells = assay: Cell proliferation (cell counts); format: cell-based, Human
Method: as §1, §2

RKO cells = assay: Cell proliferation (cell counts); format: cell-based, Human
Method: as §1, §2

INK4A(p16) promoter = assay: Methylation specific PCR of CRC cell lines (control promoter); format: cell-based, Human; settings: 4 μM 5-Aza, 7 days in vitro; all four CRC cell lines
[3] = target: T1, interaction between Dnmtl and the SPARC promoter (Homo sapiens, UniProt P26358); assay: Chromatin immunoprecipitation (ChIP) assay; format: cell-based; settings: all CRC cell lines, following exposure to 5-Aza
T1 construct: endogenous in cells
Method: To evaluate the effect of 5-Aza exposure on the interaction between Dnmtl (a DNA methyltranferase) with the promoter region of SPARC, a ChIP assay was performed using a ChIP kit (Epigentek) as per the manufacturer's instructions. Cells were fixed with formaldehyde for protein/DNA crosslinking and lysed. The DNA was sheared by sonication (10 pulses, […]) and added to a well coated with the antibody to the protein of interest (anti-Dnmtl, cat. #A-1001, Epigentek). Washes were performed to remove unbound material, while Dnmtl-bound DNA was released by protein digestion with proteinase K. The DNA was purified through a column and PCR was performed using primers designed to target the SPARC promoter region.

MIP 101 cells = assay: Cell viability (WST-1); format: cell-based; settings: 24 h, read-out: viable cells
Method: as §1
Cell viability was evaluated using WST-1 (Roche) following the manufacturer's instructions. Cells exposed to 5-Aza for a period of 7 days (and untreated controls) were seeded at 10,000 cells per well in triplicate into a 96-well plate. Twelve hours later, 5-Fluorouracil (5-FU) was added to a final concentration of 0, 500 or 1,000 μM for an additional 24 h. WST reagent was added to each well and incubated at 37° C. after which plates were read at 60 min at 440 nm. Three independent experiments were analyzed. The significance of differences were determined using Student's t-test (P<0.05).

T1 sequence (P26358 whole entry): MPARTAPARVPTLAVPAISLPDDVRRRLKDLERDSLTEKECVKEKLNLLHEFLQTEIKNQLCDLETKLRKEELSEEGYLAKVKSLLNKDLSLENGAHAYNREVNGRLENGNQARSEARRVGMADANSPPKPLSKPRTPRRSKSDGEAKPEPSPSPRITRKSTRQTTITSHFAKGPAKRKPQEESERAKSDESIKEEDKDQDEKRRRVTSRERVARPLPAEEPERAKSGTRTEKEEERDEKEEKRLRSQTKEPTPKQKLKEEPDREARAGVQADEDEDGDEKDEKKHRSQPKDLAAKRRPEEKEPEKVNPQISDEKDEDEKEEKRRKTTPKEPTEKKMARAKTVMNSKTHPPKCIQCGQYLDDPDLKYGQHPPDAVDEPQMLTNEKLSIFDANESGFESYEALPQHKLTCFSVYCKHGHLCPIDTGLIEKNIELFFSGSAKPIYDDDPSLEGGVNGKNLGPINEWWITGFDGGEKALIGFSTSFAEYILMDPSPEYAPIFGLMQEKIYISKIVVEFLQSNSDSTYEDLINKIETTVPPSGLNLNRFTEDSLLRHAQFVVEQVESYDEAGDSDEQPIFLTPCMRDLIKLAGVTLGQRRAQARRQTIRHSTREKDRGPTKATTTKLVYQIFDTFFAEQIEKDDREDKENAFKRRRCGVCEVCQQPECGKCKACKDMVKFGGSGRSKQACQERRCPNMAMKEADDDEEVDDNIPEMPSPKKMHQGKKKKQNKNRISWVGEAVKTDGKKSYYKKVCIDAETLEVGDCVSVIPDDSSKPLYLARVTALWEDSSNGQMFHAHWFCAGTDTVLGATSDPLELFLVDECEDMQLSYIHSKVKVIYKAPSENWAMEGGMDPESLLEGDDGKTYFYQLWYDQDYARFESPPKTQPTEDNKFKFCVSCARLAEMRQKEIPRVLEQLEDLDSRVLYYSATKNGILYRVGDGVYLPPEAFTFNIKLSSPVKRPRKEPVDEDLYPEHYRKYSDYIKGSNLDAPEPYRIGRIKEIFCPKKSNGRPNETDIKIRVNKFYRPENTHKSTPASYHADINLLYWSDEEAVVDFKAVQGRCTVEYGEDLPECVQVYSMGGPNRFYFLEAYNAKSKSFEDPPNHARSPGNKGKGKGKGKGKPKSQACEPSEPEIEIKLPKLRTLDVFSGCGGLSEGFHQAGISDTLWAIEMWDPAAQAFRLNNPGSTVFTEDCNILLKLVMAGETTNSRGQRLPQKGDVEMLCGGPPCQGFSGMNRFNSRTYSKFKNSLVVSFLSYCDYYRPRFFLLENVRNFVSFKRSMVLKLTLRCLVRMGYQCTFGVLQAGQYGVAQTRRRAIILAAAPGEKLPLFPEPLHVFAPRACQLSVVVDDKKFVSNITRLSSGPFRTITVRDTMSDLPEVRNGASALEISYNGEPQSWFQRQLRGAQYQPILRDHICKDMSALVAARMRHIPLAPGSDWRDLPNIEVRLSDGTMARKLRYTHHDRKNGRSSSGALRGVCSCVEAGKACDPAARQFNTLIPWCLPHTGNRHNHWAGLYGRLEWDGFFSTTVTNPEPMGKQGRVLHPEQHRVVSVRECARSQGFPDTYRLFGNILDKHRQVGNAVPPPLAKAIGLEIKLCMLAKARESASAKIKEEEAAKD

Row | SMILES | SPARC protein expression (Western blot) (SPARC [1]) | methylation status in the MSP1 and MSP2 regions of the SPARC promoter (SPARC promoter) | SPARC RNA expression (RT-PCR) (SPARC [2]) | cell proliferation (HCT 116 cells) | cell proliferation (HT29 cells) | increase in cell doubling time (MIP101 cells; 4 μM 5-Aza vs control) | doubling time (MIP101 cells; incubation with 4 μM 5-Aza (control 0.8 days)) | increase in cell doubling time (RKO cells; 4 μM 5-Aza vs control) | doubling time (RKO cells; incubation with 4 μM 5-Aza (control 0.7 days)) | methylation status of the INK4A(p16) promoter (INK4A(p16) promoter) | interaction between the SPARC promoter and Dnmtl (ChIP) [3] | viability at 500 µM (MIP 101 cells; Homo sapiens, 500 μM 5-FU only) | viability at 1000 µM (MIP 101 cells; Homo sapiens, 1,000 μM 5-FU only)
1 | Nc1ncn([C@H]2C[C@H](O)[C@@H](CO)O2)c(=O)n1 [5-Aza, 5-Aza-2′deoxycytidine] | reactivation of SPARC RNA and protein expression | change in the methylation status | higher SPARC expression; also recorded: reactivation of SPARC RNA and protein expression | less dramatic yet significant decrease in cell proliferation | less dramatic yet significant decrease in cell proliferation | 3 fold | 2.4 days | 2.4 fold and 2.43 fold | 1.7 days | change in the methylation status | no longer observed |  | 
2 | O=c1[nH]cc(F)c(=O)[nH]1 [5-FU, 5-Fluorouracil] |  |  |  |  |  |  |  |  |  |  |  | 87.7% | 82.7%
